Measurements as given in patent publication US20200345049A1, “COMPOSITIONS” (Givaudan, S.A., priority 2017, published 2020).
Where “and” joins values, the source holds several entries; their conditions need not be identical. Equal values may be shown once.

Tests used:
Assay type in all cases: in vivo, human
[1] = system: sweet sensitive taste panel; experiment: Sweetness ranking against sucrose solutions to determine sucrose equivalence
Description: The term “sucrose equivalence” refers to the equivalence in sweetness of a composition containing at least one non-sucrose sweetener to a reference sucrose solution. Typically, taste panellists are trained to detect sweetness of reference sucrose solutions containing between 1% and 15% sucrose (w/v). Other non-sucrose sweeteners may then be tasted at a series of dilutions to determine the concentration of the non-sucrose sweetener that is as sweet (i.e. isosweet) to a given sucrose reference. The term “isosweet” refers to compositions that have equivalent sweetness. Typically, the sweetness of a given composition is measured with reference to a solution of sucrose. See “A Systematic Study of Concentration-Response Relationships of Sweeteners,” G. E. DuBois, D. E. Walters, S. S. Schiffman, Z. S. Warwick, B. J. Booth, S. D. Pecore, K. Gibes, B. T. Carr, and L. M. Brands, in Sweeteners: Discovery, Molecular Design and Chemoreception, D. E. Walters, F. T. Orthoefer, and G. E. DuBois, Eds., American Chemical Society, Washington, D.C. (1991), pp 261-276.
A sweet sensitive taste panel ranked the sweetness of solutions of a mixture of sweeteners (“Mixture 1”) in relation to sucrose solutions at a range of concentrations to determine sucrose equivalence. Mixture 1 was a combination of fractions 11 to 18 of Example 2 and contained 8.16 wt % 11-O-mogroside V and 61.6 wt % mogroside V. The results are shown in Table 6 below.
A sweet sensitive taste panel ranked the sweetness of solutions of various sweeteners (mogroside V, mogroside IV, siamenoside, neomogroside, 11-O-mogroside V) in relation to sucrose solutions at a range of concentrations to determine sucrose equivalence. The sweeteners were obtained using an Agilent 1100 preparative HPLC system with a Phenomenex Luna C18 (2) column (5 μm, 210×21.4 mm).

[2] = system: sweet sensitive taste panel; experiment: Sweetness enhancement: sweetener added to 5% (w/v) sucrose, ranked against 5, 6, 6.5 and 7% (w/v) sucrose solutions; details: for Average Score: ranked against 5, 6, 6.5 and 7% sucrose; for Sweetness enhancer effect: increase in sweetness of 5% (w/v) sucrose greater than sweetness of the sweetener alone
Method: This solution was then ranked against 5, 6, 6.5 and 7% (w/v) sucrose solutions. This was repeated for 45 ppm Luo Han Guo extract. The average score of each solution was determined. […] These solutions were then ranked against 5, 6, 6.5 and 7% (w/v) sucrose solutions. The average score of each solution was determined.

[3] = system: expert panel of three people (trained flavourists); experiment: Descriptive taste test in 5% sucrose and 0.03% citric acid compared to Luo Han Guo extract; details: for Taste description: added to 5% sucrose and 0.03% citric acid; for Sweet quality compared to Luo Han Guo extract: in 5% sucrose and 0.03% citric acid
Method: (§1) The taste of various concentrations of mixture 1 was tested by an expert panel of three people (trained flavourists) in solutions containing 5% sucrose and 0.03% citric acid. The taste was compared to the Luo Han Guo extract used in Example 2 (obtained from Azile LCC (Rolling Hills Est, California) (extract 1 of Example 1 above) and containing about 68 wt % mogrosides) (combined with the same 5% sucrose and 0.03% citric acid solution).
as §1, with “these sweeteners” for “various concentrations of mixture 1”, “mogrosides).” for “mogrosides) (combined with the same 5% sucrose and 0.03% citric acid solution).”

[4] = system: expert panel of seven people; experiment: Scoring of sweet taste aspects versus base solution (5% sucrose and 0.03% citric acid); details: for Astringent, average score / Lingering Sweet, average score / Overall Sweet, average score / Upfront Sweet, average score / Volatile Off-Note, average score: score versus base, 0 same, 3 much higher, −3 much lower
[5] = system: Four sweet sensitive panelists; experiment: Iso-sweet potency versus standard sucrose solutions; details: for Iso-sweet potency: calculated from mean sweet equivalence concentrations
Method: 10 mg iso-mogroside VI (FIG. 7) was dissolved in […] water to make 100 ppm iso-mogroside VI solution. The working solution of 11-epi-mogroside V (FIG. 8) was 374 ppm (9.34 mg 11-epi-mogroside V in 25 mL water), A series of standard sucrose solutions were prepared (0.50, 0.75, 1.00, 1.25, 1.50%) as sweetness references.
Four sweet sensitive panelists evaluated 100 ppm iso-mogroside VI and 374 ppm 11-epi-mogroside V and the sucrose standards, and were asked to give sweet equivalence concentrations to sucrose. The mean sweet equivalence concentrations of each compound were used to calculate the iso-sweet potency.

## C[C@H](CC[C@@H](O[C@@H]1O[C@H](CO)[C@@H](O)[C@H](O)[C@H]1O[C@@H]1O[C@H](CO)[C@@H](O)[C@H](O)[C@H]1O)C(C)(C)O)[C@H]1CC[C@@]2(C)[C@H]3CC=C4[C@@H](CC[C@H](O[C@@H]5O[C@H](CO[C@@H]6O[C@H](CO)[C@@H](O)[C@H](O)[C@H]6O)[C@@H](O)[C@H](O)[C@H]5O)C4(C)C)[C@]3(C)[C@H](O)C[C@]12C [Mogroside IV]
[1]; Table 10, 25 ppm Mogroside IV, 7 panelists
  Total of sweetness ranks: 13
[1]; Table 10, 30 ppm Mogroside IV, 7 panelists
  Total of sweetness ranks: 20
[2]; 30 ppm in 5% (w/v) sucrose
  Average Score: 6.2
[3]
  Taste description: good and similar sweetness as mogroside V
  Sweet quality compared to Luo Han Guo extract: better than Luo Han Guo extract in terms of sweet quality
[4]; Table 16, 30 ppm
  Astringent, average score: 0
  Lingering Sweet, average score: 0
  Overall Sweet, average score: 0.4
  Upfront Sweet, average score: 0.4
  Volatile Off-Note, average score: 0

## C[C@H](CC[C@@H](O[C@@H]1O[C@H](CO[C@@H]2O[C@H](CO)[C@@H](O)[C@H](O)[C@H]2O)[C@@H](O)[C@H](O)[C@H]1O[C@@H]1O[C@H](CO)[C@@H](O)[C@H](O)[C@H]1O)C(C)(C)O)[C@H]1CC[C@@]2(C)[C@@H]3CC=C4[C@@H](CC[C@H](O[C@@H]5O[C@H](CO[C@@H]6O[C@H](CO)[C@@H](O)[C@H](O)[C@H]6O)[C@@H](O)[C@H](O)[C@H]5O)C4(C)C)[C@]3(C)[C@@H](O)C[C@]12C [11-epi-mogroside V, 3-O-β-D-glucopyranosyl(1→6)-β-D-glucopyranosyl-11β-OH-mogrol-24-O-β-D-glucopyranosyl-(1→2)-[β-D-glucopyranosyl-(1→6)]-β-D-glucopyranosyl]
[4]; Table 20, 25 ppm
  Astringent, average score: 0
  Lingering Sweet, average score: 0
  Overall Sweet, average score: 0.17
  Upfront Sweet, average score: 0.33
  Volatile Off-Note, average score: 0
[5]; 374 ppm in water
  Sweet equivalence concentration to sucrose: 1.31 % sucrose
[5]
  Iso-sweet potency: 35 times of sweetness of sucrose

## C[C@H](CC[C@@H](O[C@@H]1O[C@H](CO[C@H]2O[C@H](CO)[C@H](O)[C@H](O)[C@H]2O)[C@@H](O)[C@H](O)[C@H]1O[C@@H]1O[C@H](CO)[C@@H](O)[C@H](O)[C@H]1O)C(C)(C)O)[C@H]1CC[C@@]2(C)[C@H]3CC=C4[C@@H](CC[C@H](O[C@@H]5O[C@H](CO[C@@H]6O[C@H](CO)[C@@H](O)[C@H](O)[C@H]6OC6O[C@H](CO)[C@@H](O)[C@H](O)[C@H]6O)[C@@H](O)[C@H](O)[C@H]5O)C4(C)C)[C@]3(C)[C@H](O)C[C@]12C (stereo partly shown) [Neomogroside]
[1]; Table 13, 25 ppm Neomogroside, 9 panelists
  Total of sweetness ranks: 16
[1]; Table 13, 30 ppm Neomogroside, 9 panelists
  Total of sweetness ranks: 29
[2]; 30 ppm in 5% (w/v) sucrose
  Average Score: 6.35
[2]
  Sweetness enhancer effect: act as sweetness enhancers
[3]
  Taste description: sweetness, but slightly bitter aftertaste
  Sweet quality compared to Luo Han Guo extract: better than Luo Han Guo extract in terms of sweet quality
[4]; Table 16, 30 ppm
  Astringent, average score: 0
  Lingering Sweet, average score: 0.4
  Overall Sweet, average score: 1.4
  Upfront Sweet, average score: 1
  Volatile Off-Note, average score: 0

## OC[C@H]1O[C@@](CO)(O[C@H]2O[C@H](CO)[C@@H](O)[C@H](O)[C@H]2O)[C@@H](O)[C@@H]1O [Sucrose]
[1]; Table 6, 1% Sucrose reference, 10 panelists
  Total of sweetness ranks: 33
[1]; Table 6, 1.5% Sucrose reference
  Sweetness rank by panelist: 4 and 5
[1]; Table 6, 1.5% Sucrose reference, 10 panelists
  Total of sweetness ranks: 47
[1]; Table 9, 0.5% Sucrose reference, 6 panelists
  Total of sweetness ranks: 8
[1]; Table 9, 1% Sucrose reference
  Sweetness rank by panelist: 3 and 2 and 4
[1]; Table 9, 1% Sucrose reference, 6 panelists
  Total of sweetness ranks: 19
[1]; Table 9, 1.5% Sucrose reference
  Sweetness rank by panelist: 5 and 4
[1]; Table 9, 1.5% Sucrose reference, 6 panelists
  Total of sweetness ranks: 29
[1]; Table 10, Sucrose 0.5% reference, 7 panelists
  Total of sweetness ranks: 14
[1]; Table 10, Sucrose 1% reference, 7 panelists
  Total of sweetness ranks: 23
[1]; Table 10, Sucrose 1.5% reference
  Sweetness rank by panelist: 5
[1]; Table 10, Sucrose 1.5% reference, 7 panelists
  Total of sweetness ranks: 35
[1]; Table 11, Sucrose 0.5% reference
  Sweetness rank by panelist: 1 and 2
[1]; Table 11, Sucrose 0.5% reference, 7 panelists
  Total of sweetness ranks: 8
[1]; Table 11, Sucrose 1% reference
  Sweetness rank by panelist: 4 and 2 and 3
[1]; Table 11, Sucrose 1% reference, 7 panelists
  Total of sweetness ranks: 24
[1]; Table 11, Sucrose 1.5% reference
  Sweetness rank by panelist: 5
[1]; Table 11, Sucrose 1.5% reference, 7 panelists
  Total of sweetness ranks: 35
[1]; Table 12, Sucrose 0.5% reference, 7 panelists
  Total of sweetness ranks: 9
[1]; Table 12, Sucrose 1% reference
  Sweetness rank by panelist: 2 and 3
[1]; Table 12, Sucrose 1% reference, 7 panelists
  Total of sweetness ranks: 17
[1]; Table 12, Sucrose 1.5% reference
  Sweetness rank by panelist: 3 and 4
[1]; Table 12, Sucrose 1.5% reference, 7 panelists
  Total of sweetness ranks: 27
[1]; Table 13, 0.5% Sucrose reference, 9 panelists
  Total of sweetness ranks: 15
[1]; Table 13, 1% Sucrose reference
  Sweetness rank by panelist: 3 and 4 and 2
[1]; Table 13, 1% Sucrose reference, 9 panelists
  Total of sweetness ranks: 31
[1]; Table 13, 1.5% Sucrose reference
  Sweetness rank by panelist: 5 and 4
[1]; Table 13, 1.5% Sucrose reference, 9 panelists
  Total of sweetness ranks: 44

## 3-O-β-D-glucopyranosyl(1→6)-β-D-glucopyranosyl-mogrol-24-O-β-D-glucopyranosyl-(1→6-[β-D-glucopyranosyl-(1→4)-β-D-glucopyranosyl-(1→2)]-β-D-glucopyranosyl [iso-mogroside VI]
[4]; Table 20, 25 ppm in 5% sucrose and 0.03% citric acid
  Comments: Slightly acidic
[4]; Table 20, 25 ppm
  Astringent, average score: 0
  Lingering Sweet, average score: 0.2
  Overall Sweet, average score: 0.2
  Upfront Sweet, average score: 0.2
  Volatile Off-Note, average score: 0
[5]; 100 ppm in water
  Sweet equivalence concentration to sucrose: 0.91 % sucrose
[5]
  Iso-sweet potency: 91 times of sweetness of sucrose

## C[C@H](CC[C@@H](O[C@@H]1O[C@H](CO[C@@H]2O[C@H](CO)[C@@H](O)[C@H](O)[C@H]2O)[C@@H](O)[C@H](O)[C@H]1O[C@@H]1O[C@H](CO)[C@@H](O)[C@H](O)[C@H]1O)C(C)(C)O)[C@H]1CC[C@@]2(C)[C@H]3CC=C4[C@@H](CC[C@H](O[C@@H]5O[C@H](CO)[C@@H](O)[C@H](O)[C@H]5O)C4(C)C)[C@]3(C)[C@H](O)C[C@]12C [Siamenoside]
[1]; Table 11, Siamenoside 20 ppm, 7 panelists
  Total of sweetness ranks: 19
[1]; Table 11, Siamenoside 25 ppm
  Sweetness rank by panelist: 2 and 3 and 4
[1]; Table 11, Siamenoside 25 ppm, 7 panelists
  Total of sweetness ranks: 19
[2]; 25 ppm in 5% (w/v) sucrose
  Average Score: 6.4
[2]
  Sweetness enhancer effect: act as sweetness enhancers
[3]
  Taste description: more sweet body, sweeter, rounder with a little more upfront and more round lasting sweet
  Sweet quality compared to Luo Han Guo extract: better than Luo Han Guo extract in terms of sweet quality
[4]; Table 16, 25 ppm
  Astringent, average score: 0.4
  Lingering Sweet, average score: 0.6
  Overall Sweet, average score: 1.8
  Upfront Sweet, average score: 1.4
  Volatile Off-Note, average score: 0.2
